Literature values as cited in article PMC11946513, “Modulation of the substrate preference of a MYST acetyltransferase by a scaffold protein” (The Journal of Biological Chemistry, 2025).

Target: KAT6A MYST domain
Settings: binding to the KAT6A MYST domain; acetyl-CoA competitive; read-out: inhibition constant (Ki)
Method: The active enzyme concentration for each form of KAT6A was obtained through tight-binding inhibition ([48]) by PF-9363, which binds to the KAT6A MYST domain with an inhibition constant (Ki) of ≈0.3 nM ([6]).

Ki: ~0.3 nM
SMILES: COc1cccc(OC)c1S(=O)(=O)Nc1noc2cc(Cn3cccn3)cc(OC)c12 [PF-9363]
